For series [1] the following is noted: cited from earlier work.
On the set-up of series [2]: method as in earlier work. The following applies: cited from earlier work.
A short description of series [3]: Inland Silverside embryo-to-larva 12-day exposure bioassay (mortality, dose-response). The following applies: Menidia beryllina (Inland Silverside), in vivo, <24 hpf embryos to 96 hph larvae, nominal concentrations. The method, then:
(§1) Inland Silverside embryos were removed from the spawning substrate, assessed for fertilization with a VWR VistaVision Dissecting Scope (VWR International, Radnor, PA, USA), and randomly placed in exposure wells with 1 mL of clean artificial seawater (ASW) made from reverse osmosis water and Instant Ocean Sea Salt (Spectrum Brands, Blacksburg, VA, USA). Once all well plates (Supplemental Material and Video S1) were loaded, each test was initiated by pouring the appropriate exposure solution into the well plate until embryos were submerged in 8 mL of exposure solution. Organisms were exposed from <24 h post fertilization (hpf) as embryos to 96 h post hatch (hph) larvae for a total exposure period of 12 days. […] After hatching, fish larvae, which still had their yolk sacs, were fed Gemma Microdiet (Skretting, Westbrook, ME, USA) once per day and were allowed to feed for at least two hours prior to water changes. […] Temperature, pH, salinity, and dissolved oxygen were measured daily before and after water changes using a YSI Professional Plus Quatro water quality meter (YSI Incorporated, Yellow Springs, OH, USA) and API Ammonia Test Kit and can be found in Table S1.
(§2) This suite of chosen contaminants represents commonly used pesticides with a range of log KOW values, water solubilities, and target organs. Six concentrations (Table 1), including a solvent control, were assessed per test to determine the appropriate dose–response relationships. Initial test concentrations were determined from existing mortality data from the United State EPA ECOTOX database. Where testing on saltwater species was not available, freshwater data were used to supplement. […] The fourth concentration was selected based off existing mortality data and increased by one magnitude to the fifth concentration to ensure mortality. All lower concentrations were decreased by one subsequent magnitude to ensure an appropriate dose response could be achieved.
(§3) Chemical stock solutions were made at the start of each test from which new exposure solutions were made daily in ASW immediately prior to water changes. There were six replicates per concentration and two organisms per replicate. […] At the end of the exposure period, the final survival data were recorded, and larval fish were humanely sacrificed. Exposures were approved and conducted under the Oregon State University Institutional Animal Care and Use Committee (IACUC) protocol #0035.
(§4) Statistical analysis was conducted in R version 4.0 (Vienna, Austria) and R Studio version 1.3.1093 (Boston, MA, US). The dose–response analysis consisted of fitting two-parameter log-logistic models to all seven compounds at both salinities (14 fits in total) using maximum likelihood optimization in the package drc version 3.0-1 [42]. […] In the Monte Carlo procedure, the salinity treatments for all of the replicates in the dataset were permuted (keeping the sample sizes for each salinity the same), then new dose–response curves were fit to each salinity treatment. The p-value testing whether the observed difference in LC10 and LC50 values was greater than that expected by random chance was calculated as the proportion of Monte Carlo simulations in which the difference in LC values was greater than the original observed difference. […] All values are reported as the mean ± standard error. All statistical analysis and dose–response curves were made and reported with nominal concentrations.

Series [4] relates to Rainbow Trout (Oncorhynchus mykiss). As to conditions: freshwater; 96-h acute; range of minimum to maximum reported LC50 values; ref U.S. EPA ECOTOX database; cited from earlier work.
Series [5] concerns Inland Silverside (Menidia beryllina). Nature of the series: Inland Silverside embryo-to-larva 12-day exposure bioassay (mortality, dose-response). The following applies: <24 hpf embryos to 96 hph larvae, 12 days, nominal concentrations; for 5 PSU LC10: 5 PSU salinity; for 15 PSU LC10: 15 PSU salinity. As for the experimental part:
as §1, §2, §3, §4

The conditions of series [6]: irradiation of a 300 W mercury bulb, cited from earlier work.
Details of series [7]: method as in PMID 18829159. As to conditions: reported environmental persistence; cited from earlier work.

Converted amounts (≈) assume the structure as drawn. Like-named read-outs stand apart in the source and are kept apart here.

Broadly, the LC50 is the concentration that kills 50% of the test population. Higher therefore signals lower toxicity. As usually defined, the half-life is the time needed for the level to fall by half in the phase considered.

Take `Nc1c(Cl)cc([N+](=O)[O-])cc1Cl` [Dicloran, dicloran]: the “log KOW” value in series [1] is 2.8. In addition, in series [2], the “Water Solubility” value was 6.3 µg/mL.

Regarding `CCCCC(C#N)(Cn1cncn1)c1ccc(Cl)cc1` (centres unmarked) [Myclobutanil, myclobutanil], the LC50 at 12 days came out at 3760 ng/mL (≈ 13 µM) in series [3] (5 PSU LC50, 5 PSU salinity) and 1550 ng/mL (≈ 5.37 µM) in series [3] (15 PSU LC50, 15 PSU salinity). Further, in series [1], the “log KOW” value is recorded as 2.8. The “Water Solubility” value in series [2] is 132 µg/mL. Moreover, the “FW LC50” value in series [4] was 4200 to 5270 ng/mL.

`CCOP(=S)(OCC)Oc1nc(Cl)c(Cl)cc1Cl` [Chlorpyrifos, chlorpyrifos]: the 50% lethal concentration (LC50) at 12 days came out at 8.03 ng/mL (≈ 0.0229 µM) in series [3] (5 PSU LC50, 5 PSU salinity) and 2.4 ng/mL (≈ 0.00685 µM) in series [3] (15 PSU LC50, 15 PSU salinity). Moreover, the “5 PSU LC10” value in series [5] was 0.137 ng/mL. The “15 PSU LC10” value in series [5] was determined as 0.0393 ng/mL. The “log KOW” value in series [1] is 4.7. Further, the “FW LC50” value in series [4] was <1 to 301 ng/mL.

As to `CC(C)(C)C(=O)C(Oc1ccc(Cl)cc1)n1cncn1` (centres unmarked) [Triadimefon, triadimefon], the “log KOW” value in series [1] is given as 3.2. In series [2], the “Water Solubility” value is 64 µg/mL. Moreover, the half-life in series [6] (distilled water) was 0.9 h; in series [6] (seawater), 2.97 h.

Regarding `Cc1c(COC(=O)[C@@H]2[C@H](/C=C(\Cl)C(F)(F)F)C2(C)C)cccc1-c1ccccc1` (racemic) [Bifenthrin, bifenthrin], the 50% lethal concentration (LC50) at 12 days in series [3] (5 PSU LC50, 5 PSU salinity) is 0.16 ng/mL (≈ 0.000378 µM). The same compound registered an LC50 at 12 days in series [3] (15 PSU LC50, 15 PSU salinity) of 0.12 ng/mL (≈ 0.000284 µM). In series [5], the “5 PSU LC10” value was 0.0227 ng/mL and the “15 PSU LC10” value was 0.00533 ng/mL. Moreover, the “log KOW” value in series [1] was 6.6. Also, the “Water Solubility” value in series [2] was 0.1 µg/mL. Also, the “FW LC50” value in series [4] was 0.15 to 14.7 ng/mL.

With `CC1(C)C(C=C(Cl)Cl)C1C(=O)OCc1cccc(Oc2ccccc2)c1` (centres unmarked) [permethrin], in series [1] (values quoted in discussion of Delta smelt study), the “log KOW” value is reported as 6.9.

`C[n+]1ccc(-c2cc[n+](C)cc2)cc1` [Paraquat, paraquat dichloride hydrate] yielded an LC50 at 12 days in series [3] (5 PSU LC50, 5 PSU salinity) of 37500 ng/mL. In series [3] (15 PSU LC50, 15 PSU salinity), this compound yielded an LC50 at 12 days of 18100 ng/mL. In series [5], the “5 PSU LC10” value worked out at 54.7 ng/mL and the “15 PSU LC10” value is 24.5 ng/mL. For the same compound, in series [1], the “log KOW” value is on record as −4.5. Also, the “Water Solubility” value in series [2] is 620000 µg/mL. Also, the environmental half-life entry in series [7] is “around two”. Moreover, the “FW LC50” value in series [4] was 15000 to 38680 ng/mL.

As for `CCCC(Cn1cncn1)c1ccc(Cl)cc1Cl` (centres unmarked) [Penconazole, penconazole], the LC50 at 12 days in series [3] (5 PSU LC50, 5 PSU salinity) turned out to be 107 ng/mL (≈ 0.377 µM). Further, the LC50 at 12 days in series [3] (15 PSU LC50, 15 PSU salinity) was 20.2 ng/mL (≈ 0.0711 µM). Further, in series [5], the “5 PSU LC10” value was 0.235 ng/mL and the “15 PSU LC10” value was 0.0244 ng/mL. The “log KOW” value in series [1] is recorded as 3.7.

The values are drawn from paper PMC8161390, “Salinity Alters Toxicity of Commonly Used Pesticides in a Model Euryhaline Fish Species (Menidia beryllina)” (Toxics, 2021).
